The values below come from US11591354B2, “Thiamine compound, preparation method and pharmaceutical composition thereof” (SHANGHAI RAISING PHARMACEUTICAL CO., LTD., priority 2018, dated 2023).

Test [1] concerns Aβ40. The test can be described thus: Aβ40 content secreted by HEK293APP/sw overexpression cells after compound treatment (ELISA of supernatant). The class given is cell-based. The note with it: 24 h; for Aβ40 content: APP/293 (HEK293APP/sw) cells, test sample 400 μM, culture supernatant, adjusted by total protein concentration, blank 127.81; for content of Aβ40 compared with benfotiamine in Comparative Example 2: APP/293 cells, 400 μM, in words. The procedure: (§1) (1) A BCA Protein Concentration Kit was purchased from Beyotime Biotechnology, a detection kit for Aβ40 and Aβ42 was purchased from Wako Co., Ltd., and cell culture related reagents were purchased from Gibico Co., Ltd.
(§2) (2) HEK293APP/sw overexpression cell culture: cells were cultured in a 48-well plate in DMEM culture medium (containing 10% FBS, 100 μg/mL G418 (Geneticin) and diabody), 4 mM stock solution of a test sample (prepared by dissolving the test sample in DMEM culture medium) was diluted to 400 μM in DMEM culture medium at a cell density of 70%, to each well was added 500 μL of the test sample, and the cells were cultured for 24 h.
(§3) (3) To the culture solution supernatant was added a BCA reagent, after incubating for 30 min at room temperature, absorbance of each well was measured at OD […] with a microplate reader, and a total protein concentration was calculated according to a protein standard curve; concentrations of Aβ40 and Aβ42 were measured with supernatant: the supernatant was added into a coated 96-well plate, followed by incubating overnight at 4° C., the reagent was removed and washed, HRP (horseradish peroxidase) labeled antibody was added, followed by incubating for 2 h at 4° C., the reagent was removed and washed, a TMB color developing solution was added, followed by incubating for 30 min at room temperature, a stop solution was added to stop reaction, absorbance of each well was measured at OD […] with a microplate reader, concentrations of Aβ40 and Aβ42 were calculated according to standard curves of A40 and Aβ42 respectively, and finally the concentrations of Aβ40 and Aβ42 were adjusted by using a total protein concentration to obtain a final concentration.
(In general: In an ELISA, binding on a coated surface is turned into a signal by an enzyme label.)

The test system of test [2] is Aβ42. Put plainly: Aβ42 content secreted by HEK293APP/sw overexpression cells after compound treatment (ELISA of supernatant). It counts as cell-based. Particulars: 24 h; for Aβ42 content: APP/293 (HEK293APP/sw) cells, test sample 400 μM, culture supernatant, adjusted by total protein concentration, blank 11.08; for content of Aβ42 compared with benfotiamine in Comparative Example 2: APP/293 cells, 400 μM, in words. The protocol: as §1, §2, §3

In turn, `CCCCCCCCCCCC(=O)S/C(CCOP(=O)(O)O)=C(/C)N(C=O)Cc1cnc(C)nc1N` [Example 3, (Z)—S-(2-(N-((4-amino-2-methylpyrimidin-5-yl)methyl) formamido)-5-(phosphonooxy)pent-2-en-3-yl) dodecanethioate] returned an Aβ40 content in test [1] of 128.90 pmol/L. Also, the Aβ42 content in test [2] came out at 4.93 pmol/L.

`C/C=C(\C)C(=O)S/C(CCOP(=O)(O)O)=C(/C)N(C=O)Cc1cnc(C)nc1N` [Example 4, (E)-S—((Z)-2-(N-((4-amino-2-methylpyrimidin-5-yl)methyl) formamido)-5-(phosphonooxy)pent-2-en-3-yl) 2-methylbut-2-enethioate]: the Aβ40 content in test [1] was 71.80 pmol/L. This compound had an Aβ42 content in test [2] of 5.77 pmol/L.

`CCC(C)(C)C(=O)S/C(CCOP(=O)(O)O)=C(/C)N(C=O)Cc1cnc(C)nc1N` [Example 16, (Z)—S-(2-(N-((4-amino-2-methylpyrimidin-5-yl)methyl) formamido)-5-(phosphonooxy)pent-2-en-3-yl) 2,2-dimethylbutanethioate] yielded an Aβ40 content in test [1] of 85.96 pmol/L. This compound also showed an Aβ42 content in test [2] of 33.70 pmol/L.

Consider `C/C(=C(\CCOP(=O)(O)O)SC(=O)CCc1ccccc1)N(C=O)Cc1cnc(C)nc1N` [Example 8, (Z)—S-(2-(N-((4-amino-2-methylpyrimidin-5-yl)methyl) formamido)-5-(phosphonooxy)pent-2-en-3-yl) 3-phenylpropanethioate], for which the Aβ40 content in test [1] was determined as 57.86 pmol/L. Also, the Aβ42 content in test [2] was found to be 6.38 pmol/L.

Consider `C=CCCCC(=O)S/C(CCOP(=O)(O)O)=C(/C)N(C=O)Cc1cnc(C)nc1N` [Example 9, (Z)—S-(2-(N-((4-amino-2-methylpyrimidin-5-yl)methyl) formamido)-5-(phosphonooxy)pent-2-en-3-yl) hex-5-enethioate], for which, in test [1], the Aβ40 content is listed as 80.40 pmol/L. In test [2], the Aβ42 content was 5.70 pmol/L.

With `CCC(C)C(=O)S/C(CCOP(=O)(O)O)=C(/C)N(C=O)Cc1cnc(C)nc1N` (stereo not drawn) [Example 5, (Z)—S-(2-(N-((4-amino-2-methylpyrimidin-5-yl)methyl) formamido)-5-(phosphonooxy)pent-2-en-3-yl) 2-methylbutanethioate], in test [1], the Aβ40 content is reported as 37.65 pmol/L and the “content of Aβ40 compared with benfotiamine in Comparative Example 2” value is given as “significantly reduced”. In test [2], the Aβ42 content was 2.09 pmol/L and the “content of Aβ42 compared with benfotiamine in Comparative Example 2” value is on record as “significantly reduced”.

Compound `CCCCCCCC(=O)S/C(CCOP(=O)(O)O)=C(/C)N(C=O)Cc1cnc(C)nc1N` [Example 7, (Z)—S-(2-(N-((4-amino-2-methylpyrimidin-5-yl)methyl) formamido)-5-(phosphonooxy)pent-2-en-3-yl) octanethioate] gave an Aβ40 content in test [1] of 106.81 pmol/L. For the same compound, in test [2], the Aβ42 content stood at 6.09 pmol/L.

In the case of `C/C(=C(\CCOP(=O)(O)O)SC(=O)Cc1c(F)cccc1F)N(C=O)Cc1cnc(C)nc1N` [Example 10, (Z)—S-(2-(N-((4-amino-2-methylpyrimidin-5-yl)methyl) formamido)-5-(phosphonooxy)pent-2-en-3-yl) 2-(2,6-difluorophenyl) ethanethioate], the Aβ40 content in test [1] is reported as 71.11 pmol/L. Moreover, the Aβ42 content in test [2] is 10.62 pmol/L.

`CCCC(=O)S/C(CCOP(=O)(O)O)=C(/C)N(C=O)Cc1cnc(C)nc1N` [Example 1, (Z)—S-(2-(N-((4-amino-2-methylpyrimidin-5-yl)methyl) formamido)-5-(phosphonooxy)pent-2-en-3-yl) butanethioate] registered an Aβ40 content in test [1] of 45.47 pmol/L. The same compound registered an Aβ42 content in test [2] of 8.59 pmol/L.

In test [1], `C/C(=C(\CCOP(=O)(O)O)SC(=O)c1ccccc1)N(C=O)Cc1cnc(C)nc1N` [Comparative Example 2, benfotiamine, reference compound] registered an Aβ40 content of 53.77 pmol/L. The same compound gave an Aβ42 content in test [2] of 5.04 pmol/L.

`CCCCC(CC)C(=O)S/C(CCOP(=O)(O)O)=C(/C)N(C=O)Cc1cnc(C)nc1N` (stereo not drawn) [Example 13, (Z)—S-(2-(N-((4-amino-2-methylpyrimidin-5-yl)methyl) formamido)-5-(phosphonooxy)pent-2-en-3-yl) 2-ethylhexanethioate]: the Aβ40 content in test [1] was determined as 56.28 pmol/L. Besides, the Aβ42 content in test [2] came to 24.36 pmol/L.

The compound `CCCCC(C)C(=O)S/C(CCOP(=O)(O)O)=C(/C)N(C=O)Cc1cnc(C)nc1N` (stereo not drawn) [Example 15, (Z)—S-(2-(N-((4-amino-2-methylpyrimidin-5-yl)methyl) formamido)-5-(phosphonooxy)pent-2-en-3-yl) 2-methylhexanethioate] registered an Aβ40 content in test [1] of 40.39 pmol/L. The Aβ42 content in test [2] is 9.59 pmol/L.

Consider `C/C(=C(\CCOP(=O)(O)O)SC(=O)C(C)C)N(C=O)Cc1cnc(C)nc1N` [Example 6, (Z)—S-(2-(N-((4-amino-2-methylpyrimidin-5-yl)methyl) formamido)-5-(phosphonooxy)pent-2-en-3-yl) 2-methylpropanethioate], for which, in test [1], the Aβ40 content came to 44.38 pmol/L and the “content of Aβ40 compared with benfotiamine in Comparative Example 2” value was “significantly reduced”. In test [2], the Aβ42 content was found to be 2.41 pmol/L and the “content of Aβ42 compared with benfotiamine in Comparative Example 2” value is “significantly reduced”.

For `CCCC(C)C(=O)S/C(CCOP(=O)(O)O)=C(/C)N(C=O)Cc1cnc(C)nc1N` (stereo not drawn) [Example 14, (Z)—S-(2-(N-((4-amino-2-methylpyrimidin-5-yl)methyl) formamido)-5-(phosphonooxy)pent-2-en-3-yl) 2-methylpentanethioate], the Aβ40 content in test [1] was 60.34 pmol/L. The compound also had an Aβ42 content in test [2] of 6.79 pmol/L.

As to `CCC/C=C/C(=O)S/C(CCOP(=O)(O)O)=C(/C)N(C=O)Cc1cnc(C)nc1N` [Example 12, (E)-S—((Z)-2-(N-((4-amino-2-methylpyrimidin-5-yl)methyl) formamido)-5-(phosphonooxy)pent-2-en-3-yl) hex-2-enethioate], in test [1], the Aβ40 content is 32.87 pmol/L and the “content of Aβ40 compared with benfotiamine in Comparative Example 2” value is “significantly reduced”. For the same compound, in test [2], the Aβ42 content was found to be 0.34 pmol/L and the “content of Aβ42 compared with benfotiamine in Comparative Example 2” value is “significantly reduced”.

With `CCCCCCCCCC(=O)S/C(CCOP(=O)(O)O)=C(/C)N(C=O)Cc1cnc(C)nc1N` [Example 2, (Z)—S-(2-(N-((4-amino-2-methylpyrimidin-5-yl)methyl) formamido)-5-(phosphonooxy)pent-2-en-3-yl) decanethioate], in test [1], the Aβ40 content is reported as 75.15 pmol/L. For the same compound, the Aβ42 content in test [2] came out at 5.37 pmol/L.

`CCCCC(C)(C)C(=O)S/C(CCOP(=O)(O)O)=C(/C)N(C=O)Cc1cnc(C)nc1N` [Example 17, (Z)—S-(2-(N-((4-amino-2-methylpyrimidin-5-yl)methyl) formamido)-5-(phosphonooxy)pent-2-en-3-yl) 2,2-dimethylhexanethioate] had an Aβ40 content in test [1] of 77.22 pmol/L. In test [2], this compound registered an Aβ42 content of 6.24 pmol/L.

With `C=CC(C)(C)C(=O)S/C(CCOP(=O)(O)O)=C(/C)N(C=O)Cc1cnc(C)nc1N` [Example 11, (Z)—S-(2-(N-((4-amino-2-methylpyrimidin-5-yl)methyl) formamido)-5-(phosphonooxy)pent-2-en-3-yl) 2,2-dimethylbut-3-enethioate], in test [1], the Aβ40 content is recorded as 54.75 pmol/L and the “content of Aβ40 compared with benfotiamine in Comparative Example 2” value was “substantially the same”. Besides, in test [2], the Aβ42 content was 3.22 pmol/L and the “content of Aβ42 compared with benfotiamine in Comparative Example 2” value was “reduced”.
